Values of other authors as cited in US20050043786A1, “Methods and apparatus for treatment of aneurysmal tissue” (Medtronic AVE, Inc., priority 2003, published 2005).

Conditions: for route of clearance / elimination: in vivo

Structure (SMILES) | route of clearance / elimination | other results
CCC(=O)O[C@@H](O[P@](=O)(CCCCc1ccccc1)CC(=O)N1C[C@H](C2CCCCC2)C[C@H]1C(=O)O)C(C)C [fosinopril] | balanced elimination by the liver and kidneys | –
NCCCC[C@H](N[C@@H](CCc1ccccc1)C(=O)O)C(=O)N1CCC[C@H]1C(=O)O [lisinopril] | – | time of peak concentrations in the plasma (oral administration): about 7 hours
C[C@H](CS)C(=O)N1CCC[C@H]1C(=O)O [captopril] | – | bioavailability (given orally): about 75%
CCOC(=O)[C@H](CCc1ccccc1)N[C@@H](C)C(=O)N1CC2(C[C@H]1C(=O)O)SCCS2 [spirapril] | balanced elimination by the liver and kidneys | –
